17 compounds from patent publication US20130071328A1, “Propynoic Acid Carbamoyl Methyl-Amides and Pharmaceutical Compositions and Methods Based Thereon” (UNIVERSITY OF SOUTHERN CALIFORNIA, priority 2011, published 2013) can be followed below.

Experiment [1] deals with OVCAR8 ovarian cancer cell line. As to the kind of experiment: In vitro cytotoxicity, OVCAR8. The experiment is classed as cell-based. Conditions: Homo sapiens, OVCAR-8; Table 4, ovarian cancer panel. As to the method: (§1) Cytotoxicity was assessed by MTT assay as described previously. 43 In brief, cells were seeded in 96-well microtiter plates and allowed to attach overnight. Cells were subsequently treated with continuous exposure to corresponding drugs for 72 h. At the end of treatments, an MTT solution (at a final concentration of 0.5 mg/mL) was added to each well, and cells were incubated for 4 h at 37° C. After removal of the supernatant, DMSO was added, and the absorbance was read at 570 nm. All assays were done in triplicate. The IC50 was then determined for each drug from a plot of log(drug concentration) versus percentage of cells killed.

Experiment [2] relates to doxorubicin-resistant NCI/ADR-RES ovarian cancer cell line. As to the kind of experiment: Cytotoxicity assay, NCI/ADR-RES. Format: cell-based. Conditions: Homo sapiens. As to the method: as §1
The test system of experiment [3] is OVCAR3 ovarian cancer cell line. As to the kind of experiment: In vitro cytotoxicity, OVCAR3. Conditions: Homo sapiens, OVCAR-3; Table 4, ovarian cancer panel. The experiment is classed as cell-based. As for the experimental part: as §1
The subject of experiment [4] is HEY ovarian cancer cell line. As to the kind of experiment: Cytotoxicity assay, HEY. Format: cell-based. Conditions: Homo sapiens.
From the text: (§2) The human breast cancer cell line MDA-MB-435 and the colon cancer cell line HT29 were purchased from the American Type Cell Culture (Manassas, Va.). Colon cancer cell lines HCT116 p53^+/+ and HCT116 p53^−/− were kindly provided by Dr. Bert Vogelstein (Johns Hopkins Medical Institutions, Baltimore, Md.). The human ovarian carcinoma cell line (HEY), naturally resistant to cisplatin (CDDP), was kindly provided by Dr. Louis Dubeau (USC Norris Cancer Center). The bladder cancer cell lines were kindly provided by Dr. Richard Cote (USC Keck School of Medicine). Cells were maintained as monolayer cultures in the appropriate media: RPMI-1640 (HT29, HCT116 p53^+/+, HCT116 p53^−/−, and HEY cell lines) or DMEM (MDA-MB-435 and UMUC3 cell lines) supplemented with 10% fetal bovine serum (FBS) (HyClone, Road Logan, Utah) at 37° C. in a humidified atmosphere of 5% CO2. To remove the adherent cells from the flask for subculture and counting, cells were washed with PBS without calcium or magnesium, incubated with a small volume of 1×trypsin-EDTA solution (Sigma-Aldrich, St. Louis, Mo.) for 5 min, resuspended with fresh culture medium, and centrifuged at 1200 rpm for 5 min. All experiments were performed using cells in exponential growth phase. Cells were routinely checked for Mycoplasma contamination using PlasmaTest kit (InvivoGen, San Diego, Calif.).
as §1

Experiment [5] has as its system HCT116 p53^+/+ colon cancer cell line. As to the kind of experiment: MTT cytotoxicity assay, HCT116 p53+/+. Format: cell-based. Conditions: Homo sapiens, HCT-116, 72 h exposure.
From the text: as §2, §1

The test system of experiment [6] is HT29 colon cancer cell line. As to the kind of experiment: MTT cytotoxicity assay, HT29. Format: cell-based. Conditions: Homo sapiens, HT-29, 72 h exposure.
From the text: as §2, §1
In general terms: Tetrazolium dyes change colour on reduction, which living cells bring about.

Experiment [7] relates to UMUC3 bladder cancer cell line. As to the kind of experiment: MTT cytotoxicity assay, UMUC3. Conditions: Homo sapiens, 72 h exposure. Format: cell-based.
From the text: as §2, §1

In experiment [8] the test system is HCT116 p53^−/− colon cancer cell line. As to the kind of experiment: MTT cytotoxicity assay, HCT116 p53-/-. The experiment is classed as cell-based. Conditions: Homo sapiens, HCT-116, 72 h exposure.
From the text: as §2, §1

Experiment [9] has as its system 5637 bladder cancer cell line. As to the kind of experiment: MTT cytotoxicity assay, 5637. Conditions: Homo sapiens, 72 h exposure. The experiment is classed as cell-based, human.
From the text: as §2, §1

The test system of experiment [10] is MDA-MB-435 breast cancer cell line. As to the kind of experiment: MTT cytotoxicity assay, MDA-MB-435. Format: cell-based, human. Conditions: Homo sapiens, MDA-MB-435, 72 h, 72 h exposure.
From the text: as §2, §1

For `C#CC(=O)N(c1ccc(-n2cnnn2)c(C)c1)C(C(=O)NC1CCCC1)c1cccnc1` (stereo not drawn) [Compound 31], the IC50 in experiment [1] stood at 1500 nM; in experiment [2] (Table 4, ovarian cancer panel) it was 2500 nM; in experiment [3] it was 2500 nM.
In the case of `C#CC(=O)N(CC(=O)NC1CCCC1)c1ccc(OC)cc1OC` [Compound 28], the IC50 came to 520 nM in experiment [1]; 20 nM in experiment [2] (Table 4, ovarian cancer panel); 230 nM in experiment [3].
Regarding `C#CC(=O)N(C)C(C(=O)NC1CCCC1)c1cccs1` (stereo not drawn) [Compound 25], the IC50 was determined as 2200 nM in experiment [1]; 320 nM in [2] (Table 4, ovarian cancer panel); 530 nM in [3].
`C#CC(=O)N(CC(=O)NC1CCCC1)c1ccc(-n2cnnn2)c(C)c1` [Compound 30]: the IC50 amounted to 10000 nM in [1]; 1800 nM in experiment [2] (Table 4, ovarian cancer panel); 3000 nM in [3].
Taken in the same sequence, the figures for `C#CC(=O)N(c1ccc(-n2cnnn2)c(C)c1)C(C(=O)NC1CCCC1)c1c(F)c(F)c(F)c(F)c1F` (stereo not drawn) [Compound 24] were 5000 nM, 450 nM and 600 nM.
In the case of `C#CC(=O)NCCC(=O)N(c1ccc(OC)cc1OC)C(C(=O)NC1CCCC1)c1cccs1` (stereo not drawn) [Compound 37], the IC50 in experiment [1] is 1500 nM; in [2] (Table 4, ovarian cancer panel), 9000 nM; in experiment [3], 2300 nM.
As to `C#CC(=O)N(c1cc(OC)c(OC)c(OC)c1)C(C(=O)NC1CCCC1)c1cccs1` (stereo not drawn) [Compound 27], the IC50 in [1] is 2200 nM; in experiment [2] (Table 4, ovarian cancer panel) it was 330 nM; in experiment [3] it was 420 nM.
Taken in the same sequence, the figures for `C#CC(=O)N(CC(=O)NCC(=O)OCC)c1ccc(OC)cc1OC` [Compound 43] were 2200 nM, 140 nM and 300 nM.
As for `C#CC(=O)N(c1ccc(-n2cnnn2)c(C)c1)C(C(=O)NC1CCCC1)c1ccc(F)cc1` (stereo not drawn) [Compound 21], the IC50 in experiment [1] came to 2200 nM; in experiment [2] (Table 4, ovarian cancer panel) it was 520 nM; in [3], 3100 nM; in [4] (Table 4, ovarian cancer panel), 310 nM.
Consider `C#CC(=O)N(c1cccc(O)c1)C(C(=O)NC1CCCC1)c1cccs1` (stereo not drawn) [Compound 26], for which the IC50 in experiment [1] came out at 2200 nM; in [2] (Table 4, ovarian cancer panel), 320 nM; in experiment [3] it was 1500 nM.
Regarding `C#CC(=O)N(c1ccc(OC)cc1OC)C(C(=O)NCC(=O)O)c1cccs1` (stereo not drawn) [Compound 39], the concentration for half-maximal inhibition (IC50) in [1] was 6000 nM; in experiment [2] (Table 4, ovarian cancer panel), 8000 nM; in experiment [3] it was over 10000 nM.
Take `C#CC(=O)N(c1ccc(C(N)=O)cc1)C(C(=O)NC1CCCC1)c1ccccc1` (stereo not drawn) [Compound 34]: the IC50 in experiment [1] turned out to be 1200 nM; in experiment [2] (Table 4, ovarian cancer panel) it was 2500 nM; in experiment [3] it was 2500 nM.
`C#CC(=O)N(CC(=O)NCC(=O)OCC)c1ccc(-n2cnnn2)c(C)c1` [Compound 44]: the IC50 in experiment [1] is over 10000 nM; in [2] (Table 4, ovarian cancer panel) it was 6300 nM; in experiment [3] it was over 10000 nM.
Take `C#CC(=O)N(c1cc(OC)cc(OC)c1)C(C(=O)NC1CCCCC1)c1ccc(OC)c(O)c1` (stereo not drawn) [Compound 35]: the IC50 in experiment [1] is 2900 nM; in experiment [2] (Table 4, ovarian cancer panel), 5500 nM; in experiment [3] it was 7500 nM.
On to `C#CC(=O)N(c1ccccc1F)C(C(=O)NC1CCCCC1)c1ccccc1F` (stereo not drawn) [Compound 19, N-[2-(Cyclohexylamino)-1-(2-fluorophenyl)-2-oxoethyl]-N-(2-fluorophenyl)Propynamide], for which the IC50 in experiment [5] is 11900 ± 100 nM; in experiment [6], 7700 ± 500 nM; in [7] it was over 20000 nM; in experiment [8], 10100 ± 2900 nM; in experiment [9] it was 2100 nM; in experiment [2] (MTT, 72 h exposure (Table 2)) it was 400 ± 100 nM. The IC50 stood at 5600 ± 2100 nM in experiment [4] (MTT, 72 h exposure (Table 2)) and 6500 ± 2100 nM in experiment [10].
Regarding `C#CC(=O)N(c1ccc(OC)cc1OC)C(C(=O)NCC(=O)OCC)c1cccs1` (stereo not drawn) [Compound 38], the IC50 in experiment [1] is 2800 ± 700 nM; in experiment [2] (Table 4, ovarian cancer panel) it was 2600 ± 1500 nM; in experiment [3], 320 nM.
The like results for `C#CC(=O)NCC(=O)N(c1ccc(OC)cc1OC)C(C(=O)NC1CCCC1)c1cccs1` (stereo not drawn) [Compound 36] were, in that order, 3100 nM, 8500 nM and 2300 nM.

One may read the IC50 as the concentration at which inhibition is half-maximal. A higher IC50 goes with weaker potency in that assay.
